{"source": "patent US9598433B2", "about": "“Hepatitis C virus inhibitors” (BRISTOL-MYERS SQUIBB COMPANY, priority 2012, dated 2017)", "key": {"[1]": {"test_system": "HCV genotype 1b (Con1) replicon in HUH-7 cells", "test": "HCV replicon luciferase reporter assay, genotype 1b", "assay_type": "cell-based", "conditions": "Hepatitis C virus, 72 h, genotype 1b replicon, 3 days incubation, read-out: LE_1b (EC50, range)", "how_it_was_run": "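The HUH-7 cells stably carried a genotype 1b Con1 replicon with a Renilla luciferase reporter and the S1179I adaptive mutation. Luminescence was read after 2 h with 7.5 μM EnduRen, and EC50s came from four-parameter logistic fits.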"}, "[2]": {"test_system": "HCV genotype 1a (H77 strain) replicon in HUH-7 cells", "test": "HCV replicon luciferase reporter assay, genotype 1a", "assay_type": "cell-based", "conditions": "Hepatitis C virus, 72 h, genotype 1a replicon, 3 days incubation, read-out: LE_1a (EC50, range)", "how_it_was_run": "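Stable HUH-7 line carrying luciferase-reporter genotype 1a (H77) replicon with adaptive NS3 P1496L and NS5A S2204I mutations; 3.0×10^3 cells/well in 4% FCS, 0.5% DMSO, twenty-point 3-fold titration, 3 days at 37 °C. Renilla luminescence with 7.5 μM EnduRen; EC50 by four-parameter logistic fit; CC50 by multiplexed Cell Titer-Blue.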"}}, "data": [{"smiles": "COc1ccc2c(O[C@@H]3C[C@H]4C(=O)N[C@]5(C(=O)NS(=O)(=O)C6CC6)C[C@H]5/C=C\\CO[C@@H](C)C[C@@H](C)[C@H](NC(=O)OC(C)(C)C(F)(F)F)C(=O)N4C3)nccc2c1", "note": "[Compound 2604, 1,1,1-trifluoro-2-methylpropan-2-yl ((2R,6S,7R,9S,13aS,14aR,16aS,Z)-14a-((cyclopropylsulfonyl)carbamoyl)-2-((6-methoxyisoquinolin-1-yl)oxy)-7,9-dimethyl-5,16-dioxo-2,3,5,6,7,8,9,11,13a,14,14a,15,16,16a-tetradecahydro-1H-cyclopropa[e]pyrrolo[2,1-i][1,7,10]oxadiazacyclopentadecin-6-yl)carbamate]", "values": [{"measurement": "EC50", "setting": "[1]", "result": "1.01 to 5", "unit": "nM"}, {"measurement": "EC50", "setting": "[2]", "result": "5.01 to 35", "unit": "nM"}]}, {"smiles": "CC[C@@H]1O[C@H](C)CC/C=C\\[C@@H]2C[C@@]2(C(=O)NS(=O)(=O)C2(C)CC2)NC(=O)[C@@H]2C[C@@H](Oc3ncc(OC)c4ccc(F)cc34)CN2C(=O)[C@H]1NC(=O)OC(C)(C)C(C)(F)F", "note": "[Compound 2605, 3,3-difluoro-2-methylbutan-2-yl ((2R,6S,7S,9R,13aS,14aR,16aS,Z)-7-ethyl-2-((7-fluoro-4-methoxyisoquinolin-1-yl)oxy)-9-methyl-14a-(((1-methylcyclopropyl)sulfonyl)carbamoyl)-5,16-dioxo-2,3,5,6,7,9,10,11,13a,14,14a,15,16,16a-tetradecahydro-1H-cyclopropa[i]pyrrolo[1,2-e][1,5,8]oxadiazacyclopentadecin-6-yl)carbamate]", "values": [{"measurement": "EC50", "setting": "[1]", "result": "0.1 to 0.5", "unit": "nM"}, {"measurement": "EC50", "setting": "[2]", "result": "0.51 to 1", "unit": "nM"}]}, {"smiles": "CC[C@@H]1O[C@H](C)CC/C=C\\[C@@H]2C[C@@]2(C(=O)NS(=O)(=O)C2(C)CC2)NC(=O)[C@@H]2C[C@@H](Oc3ncc(OC)c4ccc(F)cc34)CN2C(=O)[C@H]1NC(=O)OC(C)(C)C(F)(F)F", "note": "[Compound 2606]", "values": [{"measurement": "EC50", "setting": "[1]", "result": "0.1 to 0.5", "unit": "nM"}, {"measurement": "EC50", "setting": "[2]", "result": "0.51 to 1", "unit": "nM"}]}, {"smiles": "CCOc1cc2ccnc(O[C@@H]3C[C@H]4C(=O)N[C@]5(C(=O)NS(=O)(=O)C6(C)CC6)C[C@H]5/C=C\\CC[C@@H](C)O[C@@H](CC)[C@H](NC(=O)OC(C)(C)C(C)(F)F)C(=O)N4C3)c2cc1F", "note": "[Compound 2607, 3,3-difluoro-2-methylbutan-2-yl ((2R,6S,7S,9R,13 aS,14aR,16aS,Z)-2-((6-ethoxy-7-fluoroisoquinolin-1-yl)oxy)-7-ethyl-9-methyl-14a-(((1-methylcyclopropyl)sulfonyl)carbamoyl)-5,16-dioxo-2,3,5,6,7,9,10,11,13a,14,14a,15,16,16a-tetradecahydro-1H-cyclopropa[i]pyrrolo[1,2-e][1,5,8]oxadiazacyclopentadecin-6-yl)carbamate]", "values": [{"measurement": "EC50", "setting": "[1]", "result": "0.1 to 0.5", "unit": "nM"}, {"measurement": "EC50", "setting": "[2]", "result": "0.51 to 1", "unit": "nM"}]}, {"smiles": "CCOc1cc2ccnc(O[C@@H]3C[C@H]4C(=O)N[C@]5(C(=O)NS(=O)(=O)C6(C)CC6)C[C@H]5/C=C\\CC[C@@H](C)O[C@@H](CC)[C@H](NC(=O)OC(C)(C)C(F)(F)F)C(=O)N4C3)c2cc1F", "note": "[Compound 2608, 1,1,1-trifluoro-2-methylpropan-2-yl ((2R,6S,7S,9R,13aS,14aR,16aS,Z)-2-((6-ethoxy-7-fluoroisoquinolin-1-yl)oxy)-7-ethyl-9-methyl-14a-(((1-methylcyclopropyl)sulfonyl)carbamoyl)-5,16-dioxo-2,3,5,6,7,9,10,11,13a,14,14a,15,16,16a-tetradecahydro-1H-cyclopropa[i]pyrrolo[1,2-e][1,5,8]oxadiazacyclopentadecin-6-yl)carbamate]", "values": [{"measurement": "EC50", "setting": "[1]", "result": "0.1 to 0.5", "unit": "nM"}, {"measurement": "EC50", "setting": "[2]", "result": "0.51 to 1", "unit": "nM"}]}, {"smiles": "CC[C@@H]1O[C@H](C)CC/C=C\\[C@@H]2C[C@@]2(C(=O)NS(=O)(=O)C2(C)CC2)NC(=O)[C@@H]2C[C@@H](Oc3nccc4c5c(ccc34)OCCO5)CN2C(=O)[C@H]1NC(=O)OC(C)(C)C(C)(F)F", "note": "[Compound 2609, 3,3-difluoro-2-methylbutan-2-yl ((2R,6S,7S,9R,13aS,14aR,16aS,Z)-2-((2,3-dihydro-[1,4]dioxino[2,3-f]isoquinolin-7-yl)oxy)-7-ethyl-9-methyl-14a-(((1-methylcyclopropyl)sulfonyl)carbamoyl)-5,16-dioxo-2,3,5,6,7,9,10,11,13a,14,14a,15,16,16a-tetradecahydro-1H-cyclopropa[i]pyrrolo[1,2-e][1,5,8]oxadiazacyclopentadecin-6-yl)carbamate]", "values": [{"measurement": "EC50", "setting": "[1]", "result": "0.51 to 1", "unit": "nM"}, {"measurement": "EC50", "setting": "[2]", "result": "1.01 to 5", "unit": "nM"}]}, {"smiles": "CC[C@@H]1O[C@H](C)CC/C=C\\[C@@H]2C[C@@]2(C(=O)NS(=O)(=O)C2(C)CC2)NC(=O)[C@@H]2C[C@@H](Oc3nccc4c5c(ccc34)OCCO5)CN2C(=O)[C@H]1NC(=O)OC(C)(C)C(F)(F)F", "note": "[Compound 2610, 1,1,1-trifluoro-2-methylpropan-2-yl ((2R,6S,7S,9R,13aS,14aR,16aS,Z)-2-((2,3-dihydro-[1,4]dioxino[2,3-f]isoquinolin-7-yl)oxy)-7-ethyl-9-methyl-14a-(((1-methylcyclopropyl)sulfonyl)carbamoyl)-5,16-dioxo-2,3,5,6,7,9,10,11,13a,14,14a,15,16,16a-tetradecahydro-1H-cyclopropa[i]pyrrolo[1,2-e][1,5,8]oxadiazacyclopentadecin-6-yl)carbamate]", "values": [{"measurement": "EC50", "setting": "[1]", "result": "0.51 to 1", "unit": "nM"}, {"measurement": "EC50", "setting": "[2]", "result": "1.01 to 5", "unit": "nM"}]}, {"smiles": "CC[C@@H]1O[C@H](C)CC/C=C\\[C@@H]2C[C@@]2(C(=O)NS(=O)(=O)C2(C)CC2)NC(=O)[C@@H]2C[C@@H](Oc3nccc4c5c(ccc34)OCCO5)CN2C(=O)[C@H]1NC(=O)OC(C)(C)C", "note": "[Compound 2611, tert-butyl ((2R,6S,7S,9R,13aS,14aR,16aS,Z)-2-((2,3-dihydro-[1,4]dioxino[2,3-f]isoquinolin-7-yl)oxy)-7-ethyl-9-methyl-14a-(((1-methylcyclopropyl)sulfonyl)carbamoyl)-5,16-dioxo-2,3,5,6,7,9,10,11,13a,14,14a,15,16,16a-tetradecahydro-1H-cyclopropa[i]pyrrolo[1,2-e][1,5,8]oxadiazacyclopentadecin-6-yl)carbamate]", "values": [{"measurement": "EC50", "setting": "[1]", "result": "0.51 to 1", "unit": "nM"}, {"measurement": "EC50", "setting": "[2]", "result": "1.01 to 5", "unit": "nM"}]}, {"smiles": "CC[C@@H]1O[C@H](C)CC/C=C\\[C@@H]2C[C@@]2(C(=O)NS(=O)(=O)C2(C)CC2)NC(=O)[C@@H]2C[C@@H](Oc3nc(-c4ccc(OC(C)C)cn4)cc4cc(OC)ccc34)CN2C(=O)[C@H]1NC(=O)OC(C)(C)C(F)(F)F", "note": "[Compound 2612, 1,1,1-trifluoro-2-methylpropan-2-yl ((2R,6S,7S,9R,13aS,14aR,16aS,Z)-7-ethyl-2-((3-(5-isopropoxypyridin-2-yl)-6-methoxyisoquinolin-1-yl)oxy)-9-methyl-14a-(((1-methylcyclopropyl)sulfonyl)carbamoyl)-5,16-dioxo-2,3,5,6,7,9,10,11,13a,14,14a,15,16,16a-tetradecahydro-1H-cyclopropa[i]pyrrolo[1,2-e][1,5,8]oxadiazacyclopentadecin-6-yl)carbamate]", "values": [{"measurement": "EC50", "setting": "[1]", "result": "1.01 to 5", "unit": "nM"}, {"measurement": "EC50", "setting": "[2]", "result": "1.01 to 5", "unit": "nM"}]}, {"smiles": "CC[C@@H]1O[C@H](C)CC/C=C\\[C@@H]2C[C@@]2(C(=O)NS(=O)(=O)C2(C)CC2)NC(=O)[C@@H]2C[C@@H](Oc3nc(-c4ccc(OC(C)C)cn4)cc4cc(OC)ccc34)CN2C(=O)[C@H]1NC(=O)OC(C)(C)C(C)(F)F", "note": "[Compound 2613, 3,3-difluoro-2-methylbutan-2-yl ((2R,6S,7S,9R,13aS,14aR,16aS,Z)-7-ethyl-2-((3-(5-isopropoxypyridin-2-yl)-6-methoxyisoquinolin-1-yl)oxy)-9-methyl-14a-(((1-methylcyclopropyl)sulfonyl)carbamoyl)-5,16-dioxo-2,3,5,6,7,9,10,11,13a,14,14a,15,16,16a-tetradecahydro-1H-cyclopropa[i]pyrrolo[1,2-e][1,5,8]oxadiazacyclopentadecin-6-yl)carbamate]", "values": [{"measurement": "EC50", "setting": "[1]", "result": "0.1 to 0.5", "unit": "nM"}, {"measurement": "EC50", "setting": "[2]", "result": "1.01 to 5", "unit": "nM"}]}, {"smiles": "CCOc1cc2ccnc(O[C@@H]3C[C@H]4C(=O)N[C@]5(C(=O)NS(=O)(=O)C6(C)CC6)C[C@H]5/C=C\\CC[C@@H](C)O[C@@H](CC)[C@H](NC(=O)OC(C)(C)C(F)F)C(=O)N4C3)c2cc1F", "note": "[Compound 2615, 1,1-difluoro-2-methylpropan-2-yl ((2R,6S,7S,9R,13 aS,14aR,16aS,Z)-2-((6-ethoxy-7-fluoroisoquinolin-1-yl)oxy)-7-ethyl-9-methyl-14a-(((1-methylcyclopropyl)sulfonyl)carbamoyl)-5,16-dioxo-2,3,5,6,7,9,10,11,13a,14,14a,15,16,16a-tetradecahydro-1H-cyclopropa[i]pyrrolo[1,2-e][1,5,8]oxadiazacyclopentadecin-6-yl)carbamate]", "values": [{"measurement": "EC50", "setting": "[1]", "result": "0.51 to 1", "unit": "nM"}, {"measurement": "EC50", "setting": "[2]", "result": "0.51 to 1", "unit": "nM"}]}, {"smiles": "CC[C@@H]1O[C@H](C)CC/C=C\\[C@@H]2C[C@@]2(C(=O)NS(=O)(=O)C2(C)CC2)NC(=O)[C@@H]2C[C@@H](Oc3nccc4cc(OC)c(F)cc34)CN2C(=O)[C@H]1NC(=O)OC(C)(C)C(F)F", "note": "[Compound 2616]", "values": [{"measurement": "EC50", "setting": "[1]", "result": "1.01 to 5", "unit": "nM"}, {"measurement": "EC50", "setting": "[2]", "result": "1.01 to 5", "unit": "nM"}]}, {"smiles": "CC[C@@H]1O[C@H](C)CC/C=C\\[C@@H]2C[C@@]2(C(=O)NS(=O)(=O)C2(C)CC2)NC(=O)[C@@H]2C[C@@H](Oc3ncc(OC)c4ccc(F)cc34)CN2C(=O)[C@H]1NC(=O)OC(C)(C)C(F)F", "note": "[Compound 2617, 1,1-difluoro-2-methylpropan-2-yl ((2R,6S,7S,9R,13aS,14aR,16aS,Z)-7-ethyl-2-((7-fluoro-4-methoxyisoquinolin-1-yl)oxy)-9-methyl-14a-(((1-methylcyclopropyl)sulfonyl)carbamoyl)-5,16-dioxo-2,3,5,6,7,9,10,11,13a,14,14a,15,16,16a-tetradecahydro-1H-cyclopropa[i]pyrrolo[1,2-e][1,5,8]oxadiazacyclopentadecin-6-yl)carbamate]", "values": [{"measurement": "EC50", "setting": "[1]", "result": "0.51 to 1", "unit": "nM"}, {"measurement": "EC50", "setting": "[2]", "result": "0.1 to 0.5", "unit": "nM"}]}]}
